Data taken from patent US20070111284A1, “Galactosylation of Recombinant Glycoproteins” (Genentech, Inc., priority 2000, published 2007).

Key:
CHO cells [1] = test: Intracellular UTP and UDP-galactose in CHO cells fed uridine or galactose; format: cell-based, Chinese hamster
Protocol: CHO cells were incubated under standard tissue culture technique in the presence and absence of 1 to 20 mM uridine for 18 hours and tested for UTP concentrations using a method similar to Ryll and Wagner. Quantified data from the 0, 1, 2, 5, 10 and 20 mM uridine cultures were plotted as a function of normalized intracellular UTP concentrations. Alternatively, CHO Cells were cultured in the presence of 0.2 mM uridine or 11 mM galactose and tested for UTP concentrations using the method of Ryll and Wagner.

[2] = test system: CHO cell line that produces aCD20; test: Galactose content of aCD20 MAb from CHO cells cultured with uridine (capillary electrophoresis); format: cell-based, Chinese hamster; conditions: 0.5 to 1.0 mM uridine for 7 days; FIG. 10
Protocol: A CHO cell line that produces a recombinant glycoprotein, monoclonal antibody (MAb) aCD20, was cultured in the presence and absence of 0.5 to 1.0 mM uridine for a period of 7 days. Secreted aCD20 MAb was purified by immunoaffinity using the method of Ma & Nashabeh. Ma & Mashabeh (1999) Analytical Chemistry 71(22):5185-92. Purified aCD20 was tested for galactose content using the capillary electrophoresis method of Ma & Nashabeh and plotted as a percent galactose content.

CHO cells [3] = test: Intracellular nucleotides and nucleotide sugars (HPLC) in PALA resistant CHO cells; format: cell-based, Chinese hamster; conditions: FIG. 6
Protocol: CHO cells were treated in 5 mM PALA, cell extracts were prepared and nucleotides measured using a method similar to Ryll and Wagner. Ryll and Wagner (1991) J. Chromatography, 570:77-88. The experiment was performed over a time course of 10 to 90 days and data quantified and plotted as UTP content of PALA resistant cells relative to control cells.
Further, PALA resistant CHO DP12 cells expressing TNFR-IgG were seeded at 4×10^6 cells per ml in spinner flask cultures and incubated at 31° C. and 6 mM butyrate for 6 days. The cell culture supernatant was harvested and TNFR-IgG recovered by a method of protein A immunoaffinity chromatography as is well known in the art. N-linked glycans were analyzed by MALDI mass spectrometry using the method generally described by Papac et al., (1996) Anal. Chem., 68:3215-3223. Sialic acid content of the TNFR-IgG was determined using were analyzed using the method generally described by Anumula, (1995) Anal. Biochem., 230, 24-30.

CPS II = CPS II activity in PALA resistant CHO cells; format: cell-based, Chinese hamster; conditions: CHO B cell line, selected with 3 mM PALA; FIG. 3
Protocol: CHO DP12 and CHO DG44 parental cell lines and CHO DP12 expressing TNFR-IgG and anti-CD11a were cultivated with and without P-phosphonacytyl-L-aspartate (PALA). As shown schematically in FIG. 2, each cell line was plated at 10% confluency in 10 cm petri dishes using standard tissue culture techniques. Cells were cultured in serum containing medium having 0.1 mM PALA. The culture medium was changed weekly. Surviving clones were pooled and sub-cultivated in increasing concentrations of PALA until the target PALA concentration was reached, i.e., 2-10 mM PALA. After selection for the PALA phenotype (see below), cells were either passed into a PALA containing medium or to a PALA free medium and further cultivated in suspension spinner flasks. Spinner flask cell populations were sub-cultivated every 4-7 days. Cells selected in the presence of PALA are referred to as PALA-resistant cells, cells cultivated in the same manner as above but not treated with PALA will be referred to as control cells.
CHO cells treated with 3 mM PALA were analyzed for CPS II activity, an indicator of overall CAD activity, using the method generally described in Mori and Tatibana. […] Two PALA resistant CHO sub-cultures were analyzed, CHO-A and CHO-B, to ensure that results were uniform to the PALA resistant phenotype and not particular to a sub-population of treated cells.

CAD mRNA = CAD mRNA expression by RNase protection assay in PALA selected cells; format: cell-based; conditions: TRY cells selected under 2 mM PALA; FIG. 4
Protocol: CAD expression was measured on PALA resistant cells using a RNase protection assay similar to the method described in Mahler and McGuire. Mahler and McGuire (1990), J. Clin. Invest., 86: 1641-1648. In particular, TRY cells were selected under 2 mM PALA and CAD mRNA expression measured using a RNase protection assay.

[4] = 0.2 mM uridine or 11 mM galactose, FIG. 8

Row | SMILES | intracellular UTP levels (CHO cells [1]; [4]) | intracellular UDP-galactose levels (CHO cells [1]; 11 mM galactose, FIG. 8) | intracellular UTP levels (CHO cells [1]; 1 to 20 mM uridine for 18 hours, FIG. 7) | galactose content of aCD20 MAb versus non-uridine treated control cells [2] | increase in UTP content as compared to control cells (CHO cells [3]; CHO cells treated in 5 mM PALA, time course of 10 to 90 days) | increase in UDP-galactose content as compared to control cells (CHO cells [3]; PALA resistant CHO cells, period of at least 90 days) | increase in CPS II activity as compared to control CHO cells (CPS II) | increase in CAD mRNA as compared to control cells (CAD mRNA)
1 | O=C[C@H](O)[C@@H](O)[C@@H](O)[C@H](O)CO [galactose] | does not increase UTP levels | does increase UDP-galactose levels | – | – | – | – | – | –
2 | O=c1ccn([C@@H]2O[C@H](CO)[C@@H](O)[C@H]2O)c(=O)[nH]1 [uridine] | dramatic increase in UTP levels | – | increases UTP levels within the cell in a dose dependent manner | much higher galactose content | – | – | – | –
3 | O=C(O)C[C@H](NC(=O)CP(=O)(O)O)C(=O)O [PALA, N-phosphonacetyl-L-aspartate] | – | – | – | – | 200-350% | 200-350% | twenty | two
